In patent US12324802B2, “Modulators of cystic fibrosis transmembrane conductance regulator” (Vertex Pharmaceuticals Incorporated, priority 2020, dated 2025) one finds EC50 data, which are given here for 27 compounds.

Bounds are passed on as bounds.

T1 sequence (P13569 with tags, fused parts or gaps DEL508-508): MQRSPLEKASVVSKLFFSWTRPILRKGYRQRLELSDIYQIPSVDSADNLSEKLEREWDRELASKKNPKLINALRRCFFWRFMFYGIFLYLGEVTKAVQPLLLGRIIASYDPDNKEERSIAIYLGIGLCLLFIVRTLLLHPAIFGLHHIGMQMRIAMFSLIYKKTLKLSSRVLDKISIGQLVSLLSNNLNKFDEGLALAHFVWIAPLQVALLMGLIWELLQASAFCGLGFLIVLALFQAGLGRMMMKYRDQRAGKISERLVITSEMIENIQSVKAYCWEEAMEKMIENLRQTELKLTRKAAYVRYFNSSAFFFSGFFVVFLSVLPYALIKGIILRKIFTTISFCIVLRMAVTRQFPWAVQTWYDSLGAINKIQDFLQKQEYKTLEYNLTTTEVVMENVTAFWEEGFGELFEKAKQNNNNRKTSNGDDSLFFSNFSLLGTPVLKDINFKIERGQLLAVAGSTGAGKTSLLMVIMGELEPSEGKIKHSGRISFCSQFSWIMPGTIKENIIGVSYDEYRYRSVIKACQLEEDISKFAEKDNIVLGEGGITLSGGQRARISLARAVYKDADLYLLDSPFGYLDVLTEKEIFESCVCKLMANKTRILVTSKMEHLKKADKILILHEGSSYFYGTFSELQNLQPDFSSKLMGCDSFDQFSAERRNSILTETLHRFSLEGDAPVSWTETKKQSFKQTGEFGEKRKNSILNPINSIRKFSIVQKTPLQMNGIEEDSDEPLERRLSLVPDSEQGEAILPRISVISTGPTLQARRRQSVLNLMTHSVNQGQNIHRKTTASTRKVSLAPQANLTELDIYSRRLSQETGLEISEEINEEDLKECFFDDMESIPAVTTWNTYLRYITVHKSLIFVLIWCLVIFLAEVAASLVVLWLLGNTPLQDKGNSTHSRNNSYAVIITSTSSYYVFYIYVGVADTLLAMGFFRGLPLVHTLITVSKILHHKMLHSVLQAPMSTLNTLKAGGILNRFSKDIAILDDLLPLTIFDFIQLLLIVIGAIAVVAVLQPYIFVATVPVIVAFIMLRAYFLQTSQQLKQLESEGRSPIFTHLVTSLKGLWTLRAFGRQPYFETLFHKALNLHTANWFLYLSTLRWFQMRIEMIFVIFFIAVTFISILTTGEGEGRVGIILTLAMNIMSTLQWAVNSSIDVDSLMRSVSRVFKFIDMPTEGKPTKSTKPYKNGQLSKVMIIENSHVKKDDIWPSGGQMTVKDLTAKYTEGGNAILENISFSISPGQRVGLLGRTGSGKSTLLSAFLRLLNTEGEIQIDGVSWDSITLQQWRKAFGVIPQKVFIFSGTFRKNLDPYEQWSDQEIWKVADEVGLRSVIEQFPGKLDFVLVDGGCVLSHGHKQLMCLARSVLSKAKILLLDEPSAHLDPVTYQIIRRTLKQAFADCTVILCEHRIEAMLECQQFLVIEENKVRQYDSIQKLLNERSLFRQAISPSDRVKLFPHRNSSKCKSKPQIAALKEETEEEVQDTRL

This test concerns the target T1, CFTR (F508del/MF-HBE cells) (Homo sapiens, UniProt P13569, DEL508-508).
T1 construct: human bronchial epithelial (HBE) cells derived from CF subjects heterozygous for F508del and a minimal function CFTR mutation; endogenous in cells; host or cells: primary human bronchial epithelial cells from CF subjects (F508del/MF genotype)
Nature of the test: Ussing chamber assay of CFTR-mediated short-circuit currents (identification of potentiator compounds). It is filed as cell-based. The following applies: CFTR-mediated ISC in F508del/MF-HBE cells; incubated 18-24 hours at 37° C. with 10 μM (14S)-8-[3-(2-{dispiro[2.0.2.1]heptan-7-yl}ethoxy)-1H-pyrazol-1-yl]-...-2,2,4-trione, 20% human serum. How it is done: Ussing Chamber Assay of CFTR-Mediated Short-Circuit Currents
Ussing chamber experiments were performed using human bronchial epithelial (HBE) cells derived from CF subjects heterozygous for F508del and a minimal function CFTR mutation (F508del/MF-HBE) and cultured as previously described (Neuberger T, Burton B, Clark H, Van Goor F Methods Mol Biol 2011:741:39-54). After four days the apical media was removed, and the cells were grown at an air liquid interface for >14 days prior to use.
To isolate the CFTR-mediated short-circuit (ISC) current, F508del/MF-HBE grown on Costar® Snapwell™ cell culture inserts were mounted in an Ussing chamber and the transepithelial ISC was measured under voltage-clamp recording conditions (Vhold=0 mV) at 37° C. The basolateral solution contained (in mM) 145 NaCl, 0.83 K2HPO4, 3.3 KH2PO4, 1.2 MgCl2, 1.2 CaCl2), 10 Glucose, 10 HEPES (pH adjusted to 7.4 with NaOH) and the apical solution contained (in mM) 145 NaGluconate, 1.2 MgCl2, 1.2 CaCl2), 10 glucose, 10 HEPES (pH adjusted to 7.4 with NaOH) and 30 μM amiloride to block the epithelial sodium channel. Forskolin (20 μM) was added to the apical surface to activate CFTR, followed by apical addition of a CFTR inhibitor cocktail consisting of BPO, GlyH-101 and CFTR inhibitor 172 (each at 20 μM final assay concentration) to specifically isolate CFTR currents. The CFTR-mediated ISC (μA/cm^2) for each condition was determined from the peak forskolin response to the steady-state current following inhibition.
Identification of Potentiator Compounds
The activity of the CFTR potentiator compounds on the CFTR-mediated ISC was determined in Ussing chamber studies as described above. The F508del/MF-HBE cell cultures were incubated with the potentiator compounds at a range of concentrations in combination with 10 μM (14S)-8-[3-(2-{dispiro[2.0.2.1]heptan-7-yl}ethoxy)-1H-pyrazol-1-yl]-12,12-dimethyl-2λ^6-thia-3,9,11,18,23-pentaazatetracyclo [17.3.1.111,14.05,10]tetracosa-1(22),5,7,9,19(23),20-hexaene-2,2,4-trione for 18-24 hours at 37° C. and in the presence of 20% human serum. The concentration of potentiator compounds and (14S)-8-[3-(2-{dispiro[2.0.2.1]heptan-7-yl}ethoxy)-1H-pyrazol-1-yl]-12,12-dimethyl-2λ^6-thia-3,9,11,18,23-pentaazatetracyclo [17.3.1.111,14.05,10]tetracosa-1(22),5,7,9,19(23),20-hexaene-2,2,4-trione used during the 18-24 hours incubations was kept constant throughout the Ussing chamber measurement of the CFTR-mediated ISC to ensure compounds were present throughout the entire experiment. The efficacy and potency of the putative F508del potentiators was compared to that of the known Vertex potentiator, ivacaftor (N-[2,4-bis(1,1-dimethylethyl)-5-hydroxyphenyl]-1,4-dihydro-4-oxoquinoline-3-carboxamide).
On to `Nc1ccc2nc1-c1nnc(o1)C(O)(C(F)(F)F)CCCCC[C@@H]1CCCN21` (single isomer, unassigned) [Compound 71], for which the half-maximal effective concentration (EC50) (usually the concentration at which the effect is half-maximal) is less than 500 nM.
The same measure for `Nc1cc(C(F)(F)F)c2nc1-c1nnc(o1)C(O)(C(F)(F)F)CCCCCC1CCS(=O)(=O)N21` (single isomer, unassigned) [Compound 110, 20-amino-6-hydroxy-6,18-bis(trifluoromethyl)-22-oxa-15λ6-thia-3,4,16,21-tetraazatetracyclo[15.3.1.12,5.012,16]docosa-1(21),2,4,17,19-pentaene-15,15-dione]: less than 500 nM; for `COc1ccc2cc1C(O)(C(F)(F)F)C1=NN=C(O1)c1nc(c(C(F)(F)F)cc1N)N1CCC[C@H]1CCC2` (single isomer, unassigned) [Compound 93]: less than 500 nM.
For `Nc1cc(C(F)(F)F)c2nc1-c1nnc(o1)C(O)(C(F)(F)F)CCCCCCC1CCCN21` (single isomer, unassigned) [Compound 26, 21-amino-6,19-bis(trifluoromethyl)-23-oxa-3,4,17,22-tetraazatetracyclo[16.3.1.12,5.013,17]tricosa-1(22),2,4,18,20-pentaen-6-ol], the EC50 was greater than 1000 nM.
The same measure for `Nc1cc(C(F)(F)F)c2nc1-c1nnc(o1)C(O)(C(F)(F)F)CCCCC1CCN2C1` (stereo not drawn) [Compound 9, 16-amino-10,18-bis(trifluoromethyl)-20-oxa-2,12,13,19-tetraazatetracyclo[13.3.1.12,5.111,14]henicosa-1(19),11,13,15,17-pentaen-10-ol]: less than 500 nM; for `N#Cc1cc(N)c2nc1N1CCC[C@H]1CCCCCC(O)(C(F)(F)F)C1=NN=C2O1` (single isomer, unassigned) [Compound 80]: less than 500 nM.
Take `Nc1cc(C(F)(F)F)c2nc1-c1nnc(o1)C(O)(C(F)(F)F)CCCCC[C@@H]1COCC(=O)N21` (single isomer, unassigned) [Compound 117]: the concentration giving a half-maximal response (EC50) was greater than 1000 nM.
In the case of `CC1(CO)CCCCC[C@](O)(C(F)(F)F)C2=NN=C(O2)c2nc(c(C(F)(F)F)cc2N)N1` (single isomer, unassigned) [Compound 175], the EC50 is less than 500 nM.
The figure for `CC(C)C1CCCCC[C@](O)(C(F)(F)F)C2=NN=C(O2)c2nc(c(C(F)(F)F)cc2N)N1` (single isomer, unassigned) [Compound 178] is less than 500 nM; for `CC1CCCCCC(O)(C(F)(F)F)C2=NN=C(O2)c2nc(c(C(F)(F)F)cc2N)N1` (single isomer, unassigned) [Compound 65, 17-amino-12-methyl-6,15-bis(trifluoromethyl)-19-oxa-3,4,13,18-tetrazatricyclo[12.3.1.12,5]nonadeca-1(18),2,4,14,16-pentaen-6-ol] it is less than 500 nM; for `Nc1cc(C(F)(F)F)c2nc1-c1nnc(o1)C(O)(C(F)(F)F)CCCCCCC(=O)N2` (single isomer, unassigned) [Compound 106, 18-Amino-6-hydroxy-6,16-bis(trifluoromethyl)-20-oxa-3,4,14,19-tetrazatricyclo[13.3.1.12,5]icosa-1(19),2,4,15,17-pentaen-13-one] it is less than 500 nM.
Regarding `Nc1cc(C(F)(F)F)c2nc1-c1nnc(o1)C(O)CCCCC[C@@H]1CCCN21` (single isomer, unassigned) [Compound 21], the EC50 is less than 500 nM.
The figure for `CP(C)(=O)c1cc(N)c2nc1N1CCC[C@H]1CCCCCC(O)(C(F)(F)F)C1=NN=C2O1` (single isomer, unassigned) [Compound 98] is greater than 1000 nM; for `Nc1cc(S(=O)(=O)c2ccc(OC(F)(F)F)cc2)c2nc1-c1nnc(o1)C(O)(C(F)(F)F)CCCCC[C@@H]1CCCN21` (single isomer, unassigned) [Compound 152] it is less than 500 nM.
Turning to `Nc1cc(C(F)(F)F)c2nc1-c1nnc(o1)C(O)(C(F)(F)F)CCCCCCN2C1CCC1` (single isomer, unassigned) [Compound 73, 17-amino-13-cyclobutyl-6,15-bis(trifluoromethyl)-19-oxa-3,4,13,18-tetrazatricyclo[12.3.1.12,5]nonadeca-1(18),2,4,14,16-pentaen-6-ol], the EC50 was less than 500 nM.
The figure for `Nc1cc(C(F)(F)F)c2nc1-c1nnc(o1)C(O)(C(F)(F)F)CCCCC1CCCN21` (stereo not drawn) [Compound 17, 19-amino-6,17-bis(trifluoromethyl)-21-oxa-3,4,15,20-tetraazatetracyclo[14.3.1.12,5.011,15]henicosa-1(20),2,4,16,18-pentaen-6-ol] is less than 500 nM; for `COc1ccc2cc1C(O)(C(F)(F)F)C1=NN=C(O1)c1nc(c(C(F)(F)F)cc1N)N1CCC[C@H]1CCC2` (single isomer, unassigned) [Compound 92] it is greater than 1000 nM.
The same measure for `CC(C)c1cc(N)c2nc1N1CCC[C@H]1CCCCCC(O)(C(F)(F)F)C1=NN=C2O1` (single isomer, unassigned) [Compound 63]: less than 500 nM; for `Nc1cc(C(F)(F)F)c2nc1-c1nnc(o1)/C(C(F)(F)F)=C\CCCC[C@@H]1CCCN21` [Compound 10, (6E,12R)-6,18-bis(trifluoromethyl)-22-oxa-3,4,16,21-tetraazatetracyclo[15.3.1.12,5.012,16]docosa-1(21),2,4,6,17,19-hexaen-20-amine]: greater than 1000 nM; for `COc1cc2nc(c1N)-c1nnc(o1)C(O)(C(F)(F)F)CCCCC[C@@H]1CCCN21` (single isomer, unassigned) [Compound 159]: greater than 1000 nM.
The same measure for `CC1(O)CCCCC[C@@H]2CCCN2c2nc(c(N)cc2C(F)(F)F)C2=NN=C1O2` (single isomer, unassigned) [Compound 45]: less than 500 nM.
For `NC(=O)c1cc(N)c2nc1N1CCC[C@H]1CCCCCC(O)(C(F)(F)F)C1=NN=C2O1` (mixture of isomers) [Compound 142, (12R)-20-amino-6-hydroxy-6-(trifluoromethyl)-22-oxa-3,4,16,21-tetraazatetracyclo[15.3.1.12,5.012,16]docosa-1(21),2,4,17,19-pentaene-18-carboxamide], the concentration giving a half-maximal response (EC50) was greater than 1000 nM.
The figure for `Nc1cc(C(F)(F)F)c2nc1-c1nnc(o1)C(O)(C(F)(F)F)CCCCCC(c1ccccc1)N2` (single isomer, unassigned) [Compound 120, 17-amino-12-phenyl-6,15-bis(trifluoromethyl)-19-oxa-3,4,13,18-tetrazatricyclo[12.3.1.12,5]nonadeca-1(18),2,4,14,16-pentaen-6-ol] is less than 500 nM; for `Nc1cc(C(F)(F)F)c2nc1-c1nnc(o1)[C@@](O)(C(F)(F)F)CCCCCC1(CCOCC1)N2` [Compound 205, (6R)-17-amino-6,15-bis(trifluoromethyl)spiro[19-oxa-3,4,13,18-tetrazatricyclo[12.3.1.12,5]nonadeca-1(18),2,4,14,16-pentaene-12,4′-tetrahydropyran]-6-ol] it is less than 500 nM.
The figure for `CCNc1cc(C(F)(F)F)c2nc1-c1nnc(o1)[C@@](O)(C(F)(F)F)CCCCC[C@@H]1CCCN21` [Compound 14, (6R,12R)-20-(ethylamino)-6,18-bis(trifluoromethyl)-22-oxa-3,4,16,21-tetraazatetracyclo[15.3.1.12,5.012,16]docosa-1(21),2,4,17,19-pentaen-6-ol] is less than 500 nM; for `CN1CCCCCCC(=O)C2=NN=C(O2)c2nc1c(C(F)(F)F)cc2N` [Compound 58, 17-amino-13-methyl-15-(trifluoromethyl)-19-oxa-3,4,13,18-tetrazatricyclo[12.3.1.12,5]nonadeca-1(18),2,4,14,16-pentaen-6-one] it is less than 500 nM; for `COc1cc2nc(c1N)-c1nnc(o1)C(O)(C(F)(F)F)CCCCC[C@@H]1CCCN21` (single isomer, unassigned) [Compound 160] it is greater than 1000 nM.
